Experimental findings from patent US20190369111A1, “MOLECULAR KINETICS EVALUATION METHOD AND SCREENING METHOD” (Tokyo University of Science Foundation, priority 2016, published 2019) are described below.

The series has as its target T1, wild-type K-Ras protein (Mus musculus, UniProt P32883).
T1 construct: intraperitoneally administered to C57BL/6J wild-type mice; from tissue; host or cells: C57BL/6J wild-type mice: spleen, pancreas, liver, kidneys, colon, lungs, heart
As to the kind of experiment: Degradation of wild-type K-Ras protein in each tissue of mouse after administration, Western blot analysis. Type of series: in vivo. How it is done:
TUS-007 was dissolved in DMSO, and then dissolved in corn oil so that the concentration of DMSO was 10 vol %, and then intraperitoneally administered to C57BL/6J wild-type mice (8 to 9 weeks old, male) (CLEA Japan, Inc.) in an amount of 40 mg/kg body weight or 80 mg/kg body weight (n=3 to 4). Furthermore, in addition to a group in which TUS-007 was administered, a group in which Ras-SOS had been administered in a dose of 80 mg/kg body weight was prepared. As a control, an injection carrier (corn oil containing 10 vol % DMSO) was used. The mice were kept under an environment of ad libitum access to food and water. The mice were dissected under deep anesthesia by Somnopentyl (Kyoritsu Seiyaku Corporation) 48 hours after administration. Abdominal section was performed, and then the spleen, pancreas, liver, kidneys, colon, lungs, and heart were sequentially extracted and flash frozen in liquid nitrogen. Each tissue frozen in liquid nitrogen was stored in a deep freezer at −80° C.
The frozen tissues (spleen: 0.02 g, other tissues: 0.04 g) were each triturated, and then 500 μL of TKM tissue lysis buffer (50 mM triethanolamine (pH 7.8), 50 mM KCl, 5 mM MgCl2, 0.25 M sucrose, 1 mM PMSF, Protein Inhibitors Cocktail-EDTA free (Nacalai Tesque, Inc.), 1 mM DTT, and a recombinant RNase inhibitor (0.2 U/μL, Takara Bio) were added, and dissolved by rotation for 15 minutes (1 rpm, 25° C.). Then, the resultant product was subjected to centrifugation (at 13800 rpm×30 minutes, 4° C.), and the supernatants (each tissue extract) were collected. The concentration of the extracted proteins was quantified by a spectrophotometer.
Each tissue extract collected was subjected to Western blot analysis. An SDS-PAGE gel was prepared using TGX™ FastCast™ Acrylamide Kit, 12% (Bio-Rad). Electrophoresis samples were prepared in a 6×SDS-PAGE sample buffer (62.5 mM Tris-HCl pH 6.8, 2% SDS, 5% 2-mercaptoethanol, 10% glycerol, 0.25% BPB), and placed on a heat block at 95° C. for 5 minutes. Electrophoresis was performed at 160 V for 60 minutes (electrophoresis buffer; 195 mM glycine, 25 mM Tris).
After electrophoresis, proteins were transferred to a PVDF membrane (Immobion™-P, Millipore) under conditions of 100 V and 1.5 hours using a tank-type blotting device and a transfer buffer (25 mM Tris-HCl, 195 mM glycine, 0.01% SDS, 15% methanol). The membrane was split into two at the position of a 25 kDa marker. The membrane after transfer was shaken and blocked in 5% skim milk/TBS-T (100 mM Tris-HCl, 150 mM NaCl, 0.1% Tween-20, pH 7.6) at room temperature for 30 minutes. After blocking, a primary antibody reaction was performed in 5% skim milk/TBS-T. As the primary antibody, an anti-K-Ras antibody (sc-30, SantaCruz, diluted 500 times) and an anti-GAPDH antibody (sc-32233, SantaCruz, diluted 20000 times) were used. The membrane was shaken at room temperature for 60 minutes (anti-K-Ras antibody) or at 4° C. overnight (anti-GAPDH antibody), and then the membrane was washed with TBS-T for 5 minutes. It is noted that washing was performed four times. After the primary antibody reaction, a secondary antibody reaction was performed in 1% skim milk/TBS-T. The membrane was shaken at room temperature for 30 minutes, and then the membrane was washed with TBS-T for 5 minutes. It is noted that washing was performed four times. Furthermore, the membrane was washed with TBS (100 mM Tris-HCl, 150 mM NaCl, pH 7.6) for 10 minutes. Subsequently, the membrane was treated with a chemiluminescence reagent Immobilon™ Western (Millipore), and then chemiluminescence was detected using a lumino image analyzer LAS-3000 (FUJIFILM Corporation). Detected bands were quantified with an image processing software ImageJ (NIH).
On the technique in general: In western blotting, separated proteins are transferred to a membrane and probed.

T1 sequence (P32883 whole entry): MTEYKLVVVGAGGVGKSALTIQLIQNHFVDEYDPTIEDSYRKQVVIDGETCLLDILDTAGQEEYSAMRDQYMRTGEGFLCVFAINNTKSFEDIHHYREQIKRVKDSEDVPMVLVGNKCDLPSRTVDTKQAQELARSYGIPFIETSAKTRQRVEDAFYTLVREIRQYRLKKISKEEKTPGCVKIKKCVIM

As for `CC[C@@H](C)[C@H](NC(=O)CCCCCCNC(=O)[C@H](CC(C)C)NC(=O)CNC(=O)c1cc(Cl)ccc1Cl)C(=O)Nc1ccc2[nH]c(Cc3c[nH]c4ccccc34)nc2c1` [TUS-007], the “amount of wild-type K-Ras protein in colon” value (intraperitoneal 40 or 80 mg/kg body weight, 48 hours after administration, colon) was “reduced in a concentration dependent manner”. In addition, where the note is “intraperitoneal 40 or 80 mg/kg body weight, 48 hours after administration, heart”, the “amount of wild-type K-Ras protein in heart” value is “not reduced”. The “amount of wild-type K-Ras protein in kidneys” value (intraperitoneal 40 or 80 mg/kg body weight, 48 hours after administration, kidneys) is on record as “reduced in a concentration dependent manner”. Moreover, under “intraperitoneal 40 or 80 mg/kg body weight, 48 hours after administration, liver”, the “amount of wild-type K-Ras protein in liver” value is “not reduced”. Further, the “amount of wild-type K-Ras protein in lungs” value (intraperitoneal 40 or 80 mg/kg body weight, 48 hours after administration, lungs) is “not reduced”. Under “intraperitoneal 40 or 80 mg/kg body weight, 48 hours after administration, pancreas”, the “amount of wild-type K-Ras protein in pancreas” value is “reduced in a concentration dependent manner”. In addition, under “intraperitoneal 40 or 80 mg/kg body weight, 48 hours after administration, spleen”, the “amount of wild-type K-Ras protein in spleen” value was “reduced in a concentration dependent manner”. Under “suggested from K-Ras degradation in tissues”, the “transfer property to tissues (molecular kinetics)” value is “showed a higher transfer property in the pancreas, colon, kidneys, and spleen as compared with the lungs, liver, and heart”.
